{"source": "patent US9260379B2", "about": "(Ocera Therapeutics, Inc., priority 2010, dated 2016)", "origin": "cited, not measured here", "conditions": "free acid"}
{"smiles": "O=C(O)Cc1ccccc1", "note": "[phenyl acetic acid]", "values": [{"measurement": "pKa", "result": "~4.28"}]}
